In ChEMBL document CHEMBL1149354, “A new series of pyridinyl-alkynes as antagonists of the metabotropic glutamate receptor 5 (mGluR5)” (Bioorg Med Chem Lett, 2006) one finds IC50 and microsomal CLint data, which are given here for 24 compounds.

Each structure is given as a SMILES string. A value given as a limit tells only on which side of the number the result lay.

One may read the IC50 as the concentration that inhibits the measured activity by half. As usually defined, the microsomal CLint is the rate of metabolic loss divided by the concentration. Read a low microsomal CLint as greater metabolic stability.

For one series, the target named is Metabotropic glutamate receptor 1 (Homo sapiens, UniProt Q13255). Description: Activity at human mGluR1 assessed as effect on glutamate-induced calcium ion mobilization by FLIPR. Format: functional.
Sequence of Metabotropic glutamate receptor 1 (Q13255 whole entry): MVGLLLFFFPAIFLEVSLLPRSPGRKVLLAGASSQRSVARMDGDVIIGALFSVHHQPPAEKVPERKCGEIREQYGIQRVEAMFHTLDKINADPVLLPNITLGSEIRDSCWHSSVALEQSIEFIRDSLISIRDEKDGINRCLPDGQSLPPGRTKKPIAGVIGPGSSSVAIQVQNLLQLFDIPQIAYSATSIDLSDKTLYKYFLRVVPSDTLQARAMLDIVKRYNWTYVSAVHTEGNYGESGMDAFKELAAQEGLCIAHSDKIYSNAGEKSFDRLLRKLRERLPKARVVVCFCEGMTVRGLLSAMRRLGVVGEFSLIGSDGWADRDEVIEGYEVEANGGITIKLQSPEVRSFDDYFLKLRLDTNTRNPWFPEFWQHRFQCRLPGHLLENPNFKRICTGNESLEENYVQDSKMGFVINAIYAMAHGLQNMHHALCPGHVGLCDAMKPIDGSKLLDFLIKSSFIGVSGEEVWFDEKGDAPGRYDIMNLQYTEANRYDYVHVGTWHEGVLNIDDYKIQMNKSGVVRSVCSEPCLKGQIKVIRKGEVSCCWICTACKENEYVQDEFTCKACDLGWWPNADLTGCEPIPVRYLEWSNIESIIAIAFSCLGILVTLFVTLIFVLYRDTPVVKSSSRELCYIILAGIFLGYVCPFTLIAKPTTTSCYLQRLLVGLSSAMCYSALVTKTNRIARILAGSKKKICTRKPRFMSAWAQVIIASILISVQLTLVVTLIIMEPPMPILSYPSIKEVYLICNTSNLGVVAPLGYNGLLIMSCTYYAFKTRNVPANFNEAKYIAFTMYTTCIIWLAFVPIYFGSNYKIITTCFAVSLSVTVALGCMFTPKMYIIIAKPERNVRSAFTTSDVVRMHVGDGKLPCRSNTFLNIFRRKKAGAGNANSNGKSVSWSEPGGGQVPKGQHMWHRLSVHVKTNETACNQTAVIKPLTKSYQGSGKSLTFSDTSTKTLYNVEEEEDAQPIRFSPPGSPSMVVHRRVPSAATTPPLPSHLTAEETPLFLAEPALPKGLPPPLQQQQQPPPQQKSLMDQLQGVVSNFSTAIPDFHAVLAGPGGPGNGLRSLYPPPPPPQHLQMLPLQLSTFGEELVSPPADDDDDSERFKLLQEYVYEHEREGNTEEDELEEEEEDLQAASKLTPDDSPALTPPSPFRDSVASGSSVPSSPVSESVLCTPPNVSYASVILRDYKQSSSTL
As for `CCC(O)(CO)c1cc(F)cc(OCC#Cc2ccccn2)c1` (stereo not drawn), the IC50 was no less than 10000 nM. The same measure, in the same setting: as for `COc1cccc(OCC#Cc2ccccn2)c1`, the figure is greater than 10000 nM; as for `COc1cccc(OCC#Cc2cccc(C)n2)c1`, greater than 10000 nM.

For a further series, the target named is Metabotropic glutamate receptor 5 (Homo sapiens, UniProt P41594). Description: Activity at human mGluR5 assessed as effect on glutamate-induced calcium ion mobilization by FLIPR. The class given is functional.
Sequence of Metabotropic glutamate receptor 5 (P41594 whole entry): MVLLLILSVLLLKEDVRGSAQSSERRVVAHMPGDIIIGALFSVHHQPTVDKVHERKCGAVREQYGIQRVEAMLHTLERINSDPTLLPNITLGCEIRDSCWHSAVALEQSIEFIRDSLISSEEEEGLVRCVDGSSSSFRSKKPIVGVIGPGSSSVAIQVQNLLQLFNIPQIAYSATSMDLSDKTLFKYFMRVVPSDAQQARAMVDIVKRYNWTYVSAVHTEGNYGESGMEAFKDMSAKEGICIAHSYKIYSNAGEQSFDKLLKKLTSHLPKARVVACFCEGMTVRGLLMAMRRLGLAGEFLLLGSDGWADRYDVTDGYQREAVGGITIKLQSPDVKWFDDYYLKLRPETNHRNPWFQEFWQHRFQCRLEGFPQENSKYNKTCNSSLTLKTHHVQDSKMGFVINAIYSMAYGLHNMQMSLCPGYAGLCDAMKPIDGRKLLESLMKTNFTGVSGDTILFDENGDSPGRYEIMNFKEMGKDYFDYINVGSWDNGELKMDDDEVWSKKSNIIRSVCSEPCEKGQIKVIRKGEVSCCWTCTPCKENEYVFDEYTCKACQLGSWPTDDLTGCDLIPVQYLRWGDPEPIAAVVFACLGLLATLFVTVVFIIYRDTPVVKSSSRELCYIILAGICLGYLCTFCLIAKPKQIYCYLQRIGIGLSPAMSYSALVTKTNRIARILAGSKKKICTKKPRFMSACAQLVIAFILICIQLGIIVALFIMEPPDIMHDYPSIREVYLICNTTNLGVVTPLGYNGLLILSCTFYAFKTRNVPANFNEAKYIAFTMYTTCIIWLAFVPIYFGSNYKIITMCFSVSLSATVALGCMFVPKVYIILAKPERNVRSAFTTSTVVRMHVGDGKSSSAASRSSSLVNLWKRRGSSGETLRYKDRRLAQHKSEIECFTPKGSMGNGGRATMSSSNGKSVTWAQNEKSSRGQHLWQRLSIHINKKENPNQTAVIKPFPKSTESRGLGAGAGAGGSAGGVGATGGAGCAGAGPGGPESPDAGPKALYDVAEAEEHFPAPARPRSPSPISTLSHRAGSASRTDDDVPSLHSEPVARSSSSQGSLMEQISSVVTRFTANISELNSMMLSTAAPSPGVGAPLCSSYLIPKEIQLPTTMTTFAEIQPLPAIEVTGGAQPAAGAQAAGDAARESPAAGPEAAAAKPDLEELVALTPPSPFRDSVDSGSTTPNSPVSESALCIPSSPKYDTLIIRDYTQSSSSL
Turning to `CCC(O)(CO)c1cc(F)cc(OCC#Cc2ccccn2)c1` (stereo not drawn), the IC50 was found to be 300 nM. Regarding `COc1cccc(OCC#Cc2ccccn2)c1`, the IC50 came out at 1540 nM.

With `Cc1cccc(C#CCOc2ccc(Cl)cc2)n1`, the IC50 is 102 nM. Regarding `Cc1ccc(OCC#Cc2cccc(C)n2)cc1`, the IC50 is 115 nM. Still for that read-out and setting: as for `COc1cccc(OCC#Cc2cccc(C)n2)c1`, the figure is 397 nM. On the same count and under the same terms, as for `Cc1cccc(C#CCOc2cccnc2)n1`, the figure is greater than 10000 nM; as for `COc1cccc(OCC#Cc2cccc(OC)n2)c1`, greater than 10000 nM. For the compound `COc1cccc(OCC#Cc2nccs2)c1`, the IC50 is greater than 10000 nM.

Turning to `COc1cccc(OCC#Cc2ncccc2C)c1`, the IC50 was greater than 10000 nM. For the compound `Cc1cccc(C#CCOc2ccc(Cl)c(Cl)c2)n1`, the IC50 turned out to be 15 nM. The same measure, in the same setting: as for `Cc1cccc(C#CCOc2ccccc2Cl)n1`, the figure is greater than 3000 nM; as for `COc1cccc(OCC#Cc2cnccn2)c1`, greater than 10000 nM; as for `COc1cccc(OCC#Cc2ccncc2)c1`, greater than 10000 nM. Consider `Cc1ccc(OCC#Cc2cccc(C)n2)cn1`, for which the IC50 came to 2490 nM. For `Cc1cccc(C#CCOc2ccccc2)n1`, the IC50 was greater than 10000 nM.

Take `Cc1cccc(C#CCOc2cccc([N+](=O)[O-])c2)n1`: the IC50 was found to be 416 nM.

As to `COc1cccc(OCC#Cc2cc(C)ccn2)c1`, the IC50 was greater than 10000 nM. For `Cc1cccc(C#CCOc2cc(=O)[nH]c3ccccc23)n1`, the IC50 is 825 nM.

As to `COC(=O)c1cncc(OCC#Cc2cccc(C)n2)c1`, the 50% inhibitory concentration (IC50) was 1490 nM. Consider `COc1ccc(OCC#Cc2cccc(C)n2)cc1`, for which the IC50 was determined as 455 nM. Same read-out and setting: as for `Cc1cccc(C#CCOc2ccc3c(c2)CCCC3)n1`, the figure is 36 nM; as for `Cc1cccc(C#CCOc2ccc(C(C)C)cc2)n1`, 83 nM; as for `Cc1cccc(C#CCOc2cccc(Cl)c2)n1`, 101 nM.

Turning to `COc1cccc(OCC#Cc2ccc(C)cn2)c1`, the IC50 turned out to be 7930 nM.

Tested on in the next series: not listed separately
In words: Intrinsic clearance in rat liver microsomes. The class given is ADME, Microsome. (Microsomes from liver hold many membrane-bound enzymes, among them those of drug oxidation.)
Turning to `Cc1cccc(C#CCOc2ccc(Cl)c(Cl)c2)n1`, the intrinsic clearance (microsomal CLint) stood at 278 µL/min/mg.
